Results reported in US20220047556A1 (INSERM (Institut National de la Santé et de la Recherche …, priority 2018, published 2022).

Assays:
Type in all cases: cell-based, human
[1] = test system: PD-1 expression in T cells; assay: PD-1 protein expression in PMA/Io-activated T cells, flow cytometry; conditions: T cells incubated 24 h, FIGS. 1I and 1J
Description: (§1) Activation of TCR signaling was performed either with phorbol myristate acetate (PMA) and Ionomycin (Io) or with plate-bound anti-CD3.
Flow cytometry analyzed were performed on Single cell suspension of hPBMCs and T cells using BD Accuri C6 software, or Diva (BD Biosciences) and FlowJo 9.3.2 (TreeStar) softwares (flow cytometry facility of TBM Core).

[2] = test system: PD-1 positive T cells; assay: Immunofluorescence quantification of PD-1 positive T cells; conditions: activated T cells treated 24 h, FIGS. 1K and 1L
[3] = test system: PD-1 expression in T cells; assay: PD-1 mRNA levels in PMA/Io-activated T cells, real-time qPCR; conditions: T cells incubated 24 h, FIG. 1H
Excerpt: (H) PD-1 mRNA levels following PMA/Io stimulation of T cells, as assessed by Real-time qPCR. Data are represented as fold change to PMA/Io-activated cells assigned 1. […] Data represented as mean±SEM from 3 (H, J) and 2 (0) independent experiments.
Human colon carcinoma cell lines HT29 (microsatellite-instable (MSI)) and HCT116 (microsatellite-stable (MSS)) cells, BALB/c syngeneic colon carcinoma CT26 cell line, and human T cell lines Jurkat, J.RT3-T3.5 (JRT3), Myla, SeAx and HUT-78, were cultured in DMEM or RPMI 1640 complete media.
as §1

[4] = test system: JRT3 cells (TCR-activation marker CD69); assay: JRT3 functional assay: CD69 in JRT3 cells co-cultured with EPCR-expressing HT29 cells; conditions: 24 h, compared to JRT3 cells cultured alone, FIGS. 1N and 1O
Description: The Jurkat T cell line J.RT3-T3.5 (JRT3) stably expressing the human LES-γδ TCR (JRT3-LES) was incubated with the colon cancer cell line HT29 overexpressing the endothelial protein C receptor (HT29-EPCR) (34). The activation of JRT3-LES cells was evaluated by the expression of CD69.

[5] = test system: NF-κB phosphorylation; assay: phospho-NFκBp65 Western blot and densitometry in T cells after PMA/Io stimulation; conditions: Sulconazole 2 μM, FIG. 1M

For `Clc1ccc(CSC(Cn2ccnc2)c2ccc(Cl)cc2Cl)cc1` (centres unmarked) [Sulconazole, 1-[2-[(4-chlorophenyl)methylsulfanyl]-2-(2,4-dichlorophenyl)ethyl]imidazole], the “PD-1 expression at the protein level” value [1] was “repressed PD-1 expression”, the “reduction of PD-1+ cells” value [2] was 50% and the “PD-1 expression at the RNA level” value [3] was “repressed PD-1 expression”. For the same molecule, the “CD69 expression and number of CD69 positive cells” value [4] was “increased in the absence or presence of Sulconazole” and the “NF-κB phosphorylation after PMA/Io stimulation” value [5] was “inhibited”.
